Experimental data published in PMC7956625, “Optimization and Anti-Cancer Properties of Fluoromethylketones as Covalent Inhibitors for Ubiquitin C-Terminal Hydrolase L1” (Molecules, 2021).
Numbering of substitutions follows the chain as printed. Entries after “also recorded” stand apart in the source; their conditions may differ. Where a SMILES comes first, the peptide text is derived from it. The star is where a group is joined. Cbz = O=C(OCc1ccccc1)*; CH2F = FC*

Legend:
His-UCHL1 = molecular target: T1, His-UCHL1 (Homo sapiens, UniProt P09936); assay: Ub binding affinity analysis using biolayer interferometry; details: His-UCHL1 preincubated with 1 (2 mM) overnight at room temperature
T1 construct: made in house
T1 sequence (P09936 1-223): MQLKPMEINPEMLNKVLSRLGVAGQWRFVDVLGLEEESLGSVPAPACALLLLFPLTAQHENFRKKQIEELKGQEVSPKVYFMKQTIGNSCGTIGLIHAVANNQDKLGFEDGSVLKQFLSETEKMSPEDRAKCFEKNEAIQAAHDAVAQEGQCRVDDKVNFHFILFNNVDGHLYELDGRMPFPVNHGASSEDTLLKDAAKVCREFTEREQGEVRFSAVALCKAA
Procedure: The concentration of His-UCHL1 was determined by A280 on a NanoDrop system (Thermo Scientific), after which His-UCHL1 was diluted into BLI buffer [1× PBS containing 0.05% (v/v) Tween 20 and 0.1% (w/v) bovine serum albumin (BSA)]. […] The Ni-NTA biosensor was dipped first into BLI buffer (initial baseline, 60 s), then into the His-UCH protein wells (loading step, 300 s), then into BLI buffer alone (baseline step, 60 s), then into the lowest concentration of UbV (association step, 120 s), and then into buffer alone (dissociation step, 100 s). A reference sensor loaded with protein was dipped into wells containing only buffer to adjust for protein-buffer signals. The association-dissociation was repeated with increasing concentrations of UbV. All measurements were taken at 30 °C.
Octet RED384 Data Analysis Software (ForteBio, version 9.0.0.15) was used to collect and analyze the raw data for the association and dissociation curves.

UCHL5 [1] = molecular target: T2, UCHL5 (Homo sapiens, UniProt Q9Y5K5); set-up: method as in PMID 22617491; details: concentrations up to 400 µM; cited from earlier work
T2 sequence (Q9Y5K5 1-245 limits assumed): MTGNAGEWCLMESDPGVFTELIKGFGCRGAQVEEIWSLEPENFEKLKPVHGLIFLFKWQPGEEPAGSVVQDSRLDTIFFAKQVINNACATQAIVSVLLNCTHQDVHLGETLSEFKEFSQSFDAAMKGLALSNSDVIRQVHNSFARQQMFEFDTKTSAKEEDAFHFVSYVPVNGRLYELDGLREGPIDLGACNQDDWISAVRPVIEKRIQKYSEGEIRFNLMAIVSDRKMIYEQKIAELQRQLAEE

KMS11 cells = assay: KMS cell proliferation assay (IncuCyte); format: cell-based; details: 100 µM; 24, 48, 72 and 96 h
Procedure: (§1) The proliferation of KMS11 and KMS12 cells was monitored using an IncuCyte devise (Sartorius, Goettingen, Germany; www.essenbioscience.com, accessed on 31 August 2020). Cells (3 × 10^4 per well; 200 µL) were seeded in triplicate in 96 well plates the night prior to the addition of compounds. The IncuCyte was set to collect images from five fields per well at 4-h intervals by using the nuclear dye Nuclight Red (Sartorius). At each timepoint, the number of cells per well was deter- mined by taking the mean of the five locations in each well. The relative proliferation at each timepoint was normalized, with 100% set as the number of cells observed for incubated with DMSO (0.1%) controls at 72 h.

KMS12 cells = assay: KMS cell proliferation assay (IncuCyte); format: cell-based; details: 100 µM; 24 to 96 h; cells do not express UCHL1
Procedure: as §1

UCHL1 = molecular target: T3, UCHL1 (Homo sapiens, UniProt P09936); assay: Fluorescence-based Ub-Rho deubiquitinase activity assay; format: biochemical; set-up: made in house; details: IC50, after approximately 112 min preincubation
T3 sequence (P09936 1-223): T1 sequence (P09936 1-223)

UCHL5 [2] = molecular target: T2, UCHL5; assay: KMS cell activity-based probe (HA-Ub-VME) assay, HA blot higher exposure; details: 250 µM, KMS11 cells
Procedure: To confirm on-target engagement in KMS11 cells, a Ub activity-based probe (ABP) gel-shift assay was employed. Using the hemagglutinin-tagged Ub-vinylmethylester (HA-Ub-VME) ABP to examine the activity of 1 in KMS11 cells, an immunoblot was performed. Cells were treated in dose-response with 1 (0–250 µM), washed with PBS, then lysed and treated with HA-Ub-VME. The HA-Ub-VME labels any remaining DUBs that have not been inhibited by 1.
Twelve hours prior to the addition of compounds to the cells, 1.2 million KMS11 or KMS12 cells mL^−1 per well were seeded in a 12 well plate. Cells were incubated with inhibitor for 4 h before washing the cells three time with PBS to remove excess compound. Cells were harvested, pelleted, and lysed in 60 µL of lysis buffer (0.5%NP-40 in 50 mM Tris pH 7.4). HA-Ub-VME was then added to a final concentration of 1 µM and incubated for 1 h at room temperature. An equal volume of 2X Laemmli sample buffer was added, and the samples were heated to 95 °C before separating by gel electrophoresis and analyzed by immunoblot.

UCHL1^WT = molecular target: T4, UCHL1^WT (Homo sapiens, UniProt P09936); assay: Click reaction and in-gel fluorescence, recombinant protein; format: binding; details: 10 µM inhibitor, 3 h, Cy5-Azide click
T4 construct: His (N); made in house
T4 sequence (P09936 1-223): T1 sequence (P09936 1-223)
Procedure: (§2) A common shortcoming to covalent inhibitors is that the reactive electrophilic groups may partake in non-specific labeling of off-target cysteines. To investigate if alternative cysteines are affected on UCHL1 we used analog 34 to confirm that the fluoromethylketone derivatives only conjugate Cys90. […] Additionally, samples were analyzed by mass spectrometry to increase sensitivity for detection of any non-Cys90 adducts. […]
(§3) Solutions containing 1 mg/mL recombinant UCHL1^WT or UCHL1^C90A (from pET15b) (49 µL) was incubated with 10 µM inhibitor for 3 h at room temperature in PBS starting block buffer (Thermo Scientific # 37538). After 3 h, 6 µL of a freshly prepared cocktail was added to each sample, consisting of: 3 µL 1.7 mM THPTA in 1:4 DMSO/tBuOH (100 µM final concentration), 1 µL 50 mM CuSO4 (1 mM final concentration), 1 µL TCEP HCl (25 µM final concentration), and 1 uL Cy5-Azide (#AZ118, Click Chemistry Tools, Scottsdale, AZ, USA; 25 µM final concentration). The samples were allowed to react for 2 h at room temperature protected from light before precipitating the sample by adding 600 µL MeOH, 150 µL chloroform, and 400 µL water, vortexing between each addition. The samples were pelleted by centrifuging at […] for 5 min. […] The samples were then analyzed by SDS-PAGE and imaged on an Odyssey system (LI-COR, Lincoln, NE, USA) and subsequently Coomassie stained.

UCHL1 C90A = molecular target: T5, UCHL1 C90A (Homo sapiens, UniProt P09936, C90A); assay: as above; format: binding; details: 10 µM inhibitor, 3 h, Cy5-Azide click
T5 construct: His (N); made in house
T5 sequence (P09936 1-223 C90A): T1 sequence (P09936 1-223) with C90A
Procedure: as §2, §3

Compound	effect of conjugated 1 on UCHL1:Ub interaction (His-UCHL1)	activity toward UCHL5 (UCHL5 [1])	proliferation of KMS11 cells compared to DMSO (KMS11 cells)	proliferation of KMS12 cells compared to DMSO (KMS12 cells)	IC50 (UCHL1) [µM]	inhibition of DUB corresponding to the molecular weight UCHL5 (UCHL5 [2])	covalent adduct with WT-UCHL1 (in-gel fluorescence) (UCHL1^WT)	covalent adduct with UCHL1 C90A (in-gel fluorescence) (UCHL1 C90A)
COC(=O)CC[C@H](NC(=O)[C@H](C)NC(=O)[C@@H](NC(=O)OCc1ccccc1)C(C)C)C(=O)CF [Cpd 1, benzyloxycarbonyl-Val-Ala-Glu(γ-methoxy)-fluoromethylketone] (Cbz-Val-Ala-Glu(OMe)-CH2F)	completely abrogated the ability of UCHL1 to interact with Ub	not possess any activity	reduced proliferation; also recorded: anti-proliferative properties	showed reduced growth at the 24-h timepoint but regained proliferative ability at the 96-h timepoint	29	may also be inhibited	–	–
C#Cc1ccc(COC(=O)N[C@H](C(=O)N[C@@H](C)C(=O)N[C@@H](CCC(=O)OC)C(=O)CF)C(C)C)cc1 [Cpd 34]	–	–	–	–	–	–	forms a covalent adduct with WT-UCHL1; also recorded: formed a covalent adduct	does not form an adduct; also recorded: no fluorescent bands were observed
